In PubChem BioAssay (NCI):
Values joined by “and” are separate entries in the source; they are usually repeats but may differ in a detail not shown here. Equal values may be shown once.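 Compound exposure: 48 hours, 5 concentrations, 96-well plates. Abbreviation: GI50, concentration required for 50% inhibition of growth. At the TGI there is no net growth.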

How the values were obtained:
Experiment in all cases: growth of human tumour cells (NCI), 48 h
[1] = tested on: DU-145 prostate
[2] = tested on: HCT-116 colon
[3] = tested on: HOP-62 NSCLC
[4] = tested on: MDA-MB-231 breast
[5] = tested on: NCI-H226 lung
[6] = tested on: NCI-H23 lung
[7] = tested on: NCI/ADR-RES ovarian
[8] = tested on: OVCAR-4 ovarian
[9] = tested on: SF-295 CNS
[10] = tested on: SN12C renal
[11] = tested on: OVCAR-8 ovarian
[12] = tested on: RXF 393 renal
[13] = tested on: SF-539 CNS

SMILES	TGI [1]	TGI [2] [µM]	TGI [3] [µM]	TGI [4] [µM]	TGI [5]	TGI [6] [µM]	TGI [7] [µM]	TGI [8]	TGI [9]	TGI [10]	TGI [11] [µM]	TGI [12]	TGI [13]	GI50 [1] [µM]	GI50 [3] [µM]	GI50 [6] [µM]	GI50 [11]	GI50 [13] [µM]	GI50 [10] [µM]
OC1(c2ccc(-c3ccccc3)cc2)c2ccccc2C2=NCCN21 (centres undefined)	> 100 µM	> 100	43.5	> 100	62 µM	52.6	> 100	> 100 µM	> 100 µM	> 100 µM	–	–	–	–	–	–	–	–	–
CCCC(CCC(N)=O)(CCC(N)=O)[N+](=O)[O-]	> 100 µM	> 100	–	> 100	> 100 µM	> 100	> 100	–	> 100 µM	> 100 µM	> 100	> 100 µM	> 100 µM	–	–	–	–	–	–
COc1ccc(C(=O)O[C@H]2[C@@H]3C=CO[C@@H](OC4OC(CO)C(O)C(O)C4O)[C@@H]3[C@@]3(CO)O[C@@H]23)cc1O (some centres undefined)	–	–	> 100	–	–	> 100	–	> 100 µM	> 100 µM	> 100 µM	> 100	> 100 µM	> 100 µM	–	–	–	–	–	–
O=C(O)Cc1ccc(Nc2nc3cc(C(F)(F)F)ccc3nc2C(=O)O)cc1	> 100 µM	> 100	> 100	–	> 100 µM	> 100	> 100	> 100 µM	> 100 µM	> 100 µM	> 100	> 100 µM	> 100 µM	–	–	–	–	–	–
COc1ccc2nc(-c3ccccc3)cc(OCC(=O)O)c2c1	> 100 µM	> 100	> 100	> 100	> 100 µM	> 100	> 100	–	> 100 µM	> 100 µM	> 100	–	> 100 µM	–	–	–	–	–	–
CN1C/C(=C\c2cccs2)C(O)/C(=C/c2cccs2)C1 (centres undefined)	> 100 µM	> 100	> 100	> 100	> 100 µM	> 100	> 100	> 100 µM	> 100 µM	> 100 µM	> 100	> 100 µM	–	–	–	–	–	–	–
CSc1ccc(-c2cc(-c3nc4ccccc4[nH]3)no2)cc1	> 100 µM	> 100	> 100	> 100	> 100 µM	66	64.1	19.3 µM	> 100 µM	> 100 µM	> 100	–	> 100 µM	–	–	–	–	–	–
CN(C)CCNC(=O)c1ccc(NCCCN(C)CCCNc2ccc(C(=O)NCCN(C)C)c3[nH]c4ccccc4c(=O)c23)c2c(=O)c3ccccc3[nH]c12	–	0.205	0.459	0.309	0.609 µM	0.315	16	0.247 µM	1.31 µM	0.397 µM	1.14	1.15 µM	2.24 µM	–	–	–	–	–	–
CCOc1ccc2[nH]c3c(C)c4ccncc4c(C)c3c2c1	–	1.78	2.3	–	4.24 µM	3.01	–	2.72 µM	2.19 µM	1.93 µM	–	–	2.94 µM	–	–	–	–	–	–
CCOC(=O)c1nnsc1N/N=C\c1ccc([N+](=O)[O-])cc1	> 100 µM	> 100	> 100	> 100	> 100 µM	> 100	> 100	> 100 µM	> 100 µM	> 100 µM	> 100	> 100 µM	–	–	–	–	–	–	–
O=C1C(Br)=C(c2ccccc2)O/C1=C/C(=O)c1ccc(Br)cc1	> 100 µM	> 100	> 100	> 100	> 100 µM	> 100	–	> 100 µM	–	26.9 µM	81.1	46.9 µM	> 100 µM	–	–	–	–	–	–
COc1ccc(-n2[nH]nc(C(N)=O)c2=O)cc1	> 100 µM	> 100	> 100	> 100	> 100 µM	> 100	> 100	> 100 µM	> 100 µM	> 100 µM	> 100	> 100 µM	–	–	–	–	–	–	–
CCC1(N=[N+]=[N-])C(=O)c2ccccc2N(C)C1=O (centres undefined)	–	> 100	> 100	–	–	> 100	–	> 100 µM	> 100 µM	> 100 µM	> 100	–	> 100 µM	–	–	–	–	–	–
O=S(=O)(O)c1cc(N=Nc2c(O)ccc3ccccc23)ccc1/C=C/c1ccc(N=Nc2c(O)ccc3ccccc23)cc1S(=O)(=O)O	–	> 100	> 100	> 100	> 100 µM	> 100	> 100	> 100 µM	> 100 µM	> 100 µM	> 100	> 100 µM	–	–	–	–	–	–	–
Cc1ccc(NC=O)c(-c2c(N)[nH]c(=S)[nH]c2=O)c1	> 100 µM	> 100	> 100	> 100	> 100 µM	> 100	> 100	–	> 100 µM	> 100 µM	> 100	> 100 µM	> 100 µM	–	–	–	–	–	–
COC(=O)C1Cc2cc3c(cc2C1=O)CCCC3 (centres undefined)	> 100 µM	> 100	> 100	> 100	87 µM	> 100	> 100	> 100 µM	> 100 µM	> 100 µM	> 100	–	> 100 µM	–	–	–	–	–	–
c1cc2c(s1)-c1sccc1C21OCCO1	> 100 µM	> 100	> 100	> 100	> 100 µM	> 100	> 100	> 100 µM	> 100 µM	> 100 µM	> 100	–	> 100 µM	–	–	–	–	–	–
CO/N=C(/C)c1cccc(Nc2nc3ccccc3c3[nH]c4ccccc4c23)c1	25 µM	14	21.7	25.5	33.2 µM	23.1	25.1	–	14.6 µM	25 µM	20.9	–	28.1 µM	–	–	–	–	–	–
Cc1nc(C)c(N2CCN(S(=O)(=O)N(Cc3ccccc3)Cc3ccccc3)CC2)c(=O)[nH]1	> 100 µM	> 100	37.9	> 64.5	–	56.5	> 100	> 100 µM	> 83.6 µM	> 100 µM	54.1	38 µM	42.5 µM	–	–	–	–	–	–
Cc1nc(CC#N)n[nH]1	> 100 µM	> 100	> 100	> 100	–	> 100	> 100	> 100 µM	> 100 µM	> 100 µM	> 100	> 100 µM	> 100 µM	–	–	–	–	–	–

SMILES	TGI [1]	TGI [2] [µM]	TGI [3] [µM]	TGI [4] [µM]	TGI [5]	TGI [6] [µM]	TGI [7] [µM]	TGI [8]	TGI [9]	TGI [10]	TGI [11] [µM]	TGI [12]	TGI [13]	GI50 [1] [µM]	GI50 [3] [µM]	GI50 [6] [µM]	GI50 [11]	GI50 [13] [µM]	GI50 [10] [µM]
CS(=O)(=O)c1nc(-c2cc3c(c(S(C)(=O)=O)n2)CCCC3)cc2c1CCCCC2	> 100 µM	> 100	> 100	> 100	> 100 µM	> 100	> 100	> 100 µM	> 100 µM	> 100 µM	> 100	> 100 µM	–	–	–	–	–	–	–
CCOC(=O)c1[nH]c(Br)c(-c2ccc(OC)c(OC)c2)c1Br	4.65 µM and 18.3 µM	13.7	14.8	–	1.65 µM	–	> 100	–	0.0356 µM	49.4 µM	36.8	0.0424 µM	0.0428 µM and 0.0128 µM	0.0155	0.0253	7.83	0.0511 µM	0.0116	1.59
c1ccc2c(c1)c1c(n2CCOCCN2CCCC2)CCCC1	87.2 µM	32.5	28.9	31	49.5 µM	65.2	44.3	73.8 µM	> 100 µM	33.6 µM	57.6	–	29.9 µM	–	–	–	–	–	–
Cc1c2ccncc2cc2c1[nH]c1ccccc12	–	7.12	21.8	–	16.2 µM	15.9	> 56.4	33.2 µM	16.9 µM	9.12 µM	16.2	7.35 µM	5.17 µM	–	–	–	–	–	–
NC1=C(NC(=O)Cc2ccccc2F)C(=O)c2ccccc2C1=O	–	> 100	51	–	> 100 µM	> 100	–	> 100 µM	> 100 µM	> 100 µM	> 100	56.5 µM	62 µM	–	–	–	–	–	–
CN(C(=O)Cc1ccccc1)n1cnn(CC(=O)OC(C)(C)C)c1=S	> 10 µM	> 10	> 10	> 10	–	> 10	> 10	> 10 µM	> 10 µM	> 10 µM	> 10	–	> 10 µM	–	–	–	–	–	–
O=C1c2ccccc2C(=O)c2cc(N=Nc3c(O)ccc4ccccc34)ccc21	> 100 µM	> 100	> 100	> 100	> 100 µM	> 100	> 100	> 100 µM	> 100 µM	> 100 µM	> 100	> 100 µM	–	–	–	–	–	–	–
[N-]=[N+]=NC(c1cn(C2CC(O)C(CO)O2)c(=O)[nH]c1=O)C(Br)Br (centres undefined)	–	> 100	> 100	–	> 100 µM	> 100	–	–	> 100 µM	> 100 µM	> 100	> 100 µM	> 100 µM	–	–	–	–	–	–
N#CN/C(N)=N/C/N=C(\N)NC#N	–	> 100	> 100	–	> 100 µM	> 100	–	> 100 µM	> 100 µM	> 100 µM	> 100	> 100 µM	> 100 µM	–	–	–	–	–	–
CCN(CC)CCCNc1ccc2nc(C)n3c4ccc(O)cc4c(=O)c1c23	19.7 µM	11.1	19.1	–	21.4 µM	15.8	29.6	20.1 µM	19.6 µM	18.7 µM	19.6	15 µM	22.7 µM	–	–	–	–	–	–
COc1ccc(C(c2c(O)c3ccccc3n(-c3ccccc3)c2=O)c2c(O)c3ccccc3n(-c3ccccc3)c2=O)cc1	–	> 100	> 100	–	> 100 µM	> 100	–	> 100 µM	–	> 100 µM	–	> 100 µM	> 100 µM	–	–	–	–	–	–
CN(Cc1cnc2nc(N)nc(N)c2n1)c1ccc(C(=O)N[C@@H](CCC(=O)O)C(=O)O)cc1	> 250 µM	–	–	> 250	242 µM and > 250 µM	117	> 250	238 µM and > 250 µM	231 µM and > 250 µM	181 µM and > 250 µM	> 250	215 µM and > 250 µM	–	–	–	–	0.0703 µM and 0.488 µM	–	–
O=c1cc(CO)oc2c3c(cc(O)c12)OCC(COC1OC(CO)C(O)C(O)C1O)=CC3 (centres undefined)	–	> 100	> 100	–	> 100 µM	> 100	–	> 100 µM	> 100 µM	> 100 µM	> 100	> 100 µM	> 100 µM	–	–	–	–	–	–
CN(C(=O)C12C3C4C5C3C1(C(=O)C13C6C7C8C6C1C8C73)C5C42)C(C)(C)C (centres undefined)	–	18.5	> 50	–	> 50 µM	> 50	–	> 50 µM	> 50 µM	> 50 µM	> 50	> 50 µM	> 50 µM	–	–	–	–	–	–
Cc1cnc2sn(-c3ccc([N+](=O)[O-])cc3)c(=O)c2c1	> 100 µM	> 100	52.4	> 100	> 100 µM	> 100	> 100	> 100 µM	> 100 µM	> 100 µM	> 100	–	–	–	–	–	–	–	–
CCCCCCCCCCCCCCCCNC(=O)C(=O)/C=C(\O)c1ccc(C)cc1	> 10 µM	–	> 10	> 10	> 10 µM	> 10	> 10	> 10 µM	> 10 µM	> 10 µM	> 10	> 10 µM	> 10 µM	–	–	–	–	–	–
C/C=C(/I)CBr	–	27.9	43.4	–	38.5 µM	31.4	–	49.3 µM	–	34.1 µM	45.4	31.2 µM	32.5 µM	–	–	–	–	–	–
COc1ccc(N=NC(C(=O)c2ccccc2)C(=O)c2ccccc2)cc1	–	38.8	68.5	–	29.9 µM	65.3	–	> 100 µM	> 100 µM	78.8 µM	> 100	–	84.9 µM	–	–	–	–	–	–
NC(=S)/N=C(/c1nc2ccc(Cl)cc2[nH]c1=O)C(O)c1ccccc1Cl (centres undefined)	–	–	> 100	–	> 100 µM	> 100	–	> 100 µM	> 100 µM	–	> 100	> 100 µM	> 100 µM	–	–	–	–	–	–
